Experiments:
CCL2 = CCL2 expression in cerebral cortex after TBI (qPCR); format: in vivo, mouse; settings: 25 mg/kg salsalate
Method: (§1) Drug preparation and administration: CGP3466B (Sigma-Aldrich, SML1941) was dissolved in DMSO and then diluted in sterile saline. The final working stock was 0.0014 mg/ml for administering the 0.014 mg/kg dose. Intraperitoneal administration of CGP3466B was initiated 15 min or 24 h after injury, and tissues were harvested 6 h (for SNO-GAPDH, SNO-SIRT1 measurement) or 2 weeks (for ac-tau measurement) later, respectively. Salsalate (AdipoGen, AG-CR1-3574) was dissolved in DMSO and then diluted in sterile PBS. The final working stocks were as follows: 2.5 mg/ml (25 mg/kg dose), 1 mg/ml (10 mg/kg dose), 0.5 mg/ml (5 mg/kg dose). Daily intraperitoneal administration of salsalate was initiated 24 hr after injury and continued throughout behavioral testing. P7C3-A20 and FK866 (Sigma-Aldrich, F8557) were first dissolved in 1 vol of DMSO, followed by addition of 4 vol of Kolliphor and vigorously vortexing. The solution was then diluted with 30 vol of filtered 5% dextrose (pH 7.0). EX527 (Selleckchem, S1541) was dissolved in 1% DMSO+30% polyethylene glycol+1% Tween 80. Daily intraperitoneal administration of P7C3-A20 was initiated 24 hr after poly-traumatic brain injury. EX527 (10 mg/kg) was administer once a day and FK866 was treated twice per day, with the first injection given at the same time as P7C3-A20 (20 mg/kg) and the second injection given 6 h later (LoCoco et al., 2017 eLife). […]

C57BL/6J mice = assay: Foot slip test of motor function after TBI; format: in vivo, mouse; settings: low-dose salsalate daily IP from 24 h after TBI, vs. TBI+Vehicle
Method: as §1, with “injury.” for “injury. EX527 (10 mg/kg) was administer once a day and FK866 was treated twice per day, with the first injection given at the same time as P7C3-A20 (20 mg/kg) and the second injection given 6 h later (LoCoco et al., 2017 eLife).”
Foot slip test of motor function: Mice were trained to cross an 80 cm-long beam over two days and then tested on day 16. Video of the mice was recorded and analyzed by observers blind to treatment group.

p300/CBP = settings: literature (Shirakawa et al., 2016); cited from earlier work
clinically-diagnosed TBI = assay: Pharmacoepidemiologic cohort analysis (MarketScan Medicare Supplemental database), incidence of TBI; format: in vivo, human; settings: vs. PS-matched aspirin cohort, Cox regression model, 6 years of follow-up
Source text: Because ac-tau has been generally reported in the brains of subjects with AD, we evaluated the relationship between salsalate or diflunisal use and incidence of clinically-diagnosed TBI or AD by analyzing 7.23 million U.S. commercially-insured individuals (MarketScan Medicare Supplemental database). We conducted two cohort analyses to evaluate the predicted association, based on individual level of longitudinal patient data and pharmacoepidemiologic methods, as previously established (Cheng et al., 2018). Thus, our two cohorts included: (1) salsalate vs. a matched aspirin population and (2) diflunisal vs. a matched aspirin population (Table 2). For each comparison, we estimated the un-stratified Kaplan-Meier curves and conducted propensity score (PS) stratified (n strata=10) log-rank tests and a Cox regression model after adjusting age, race, sex, and disease comorbidities (including diabetes, hypertension, and coronary artery disease) using a propensity score-matching method (Methods).
Study cohorts. The IBM® MarketScan® Medicare Supplemental Database is one of the first in the U.S. to profile the healthcare experience of retirees with Medicare supplemental insurance paid by employers. The MarketScan Medicare Supplemental Database provides detailed cost, use and outcomes data for healthcare services performed in both inpatient and outpatient settings. […]

tau = assay: Tau phosphorylation at S262 after TBI (western blot); format: in vivo, mouse; settings: salsalate treatment after TBI, vs. Sham-Injury
Method: as §1, with “7.0).” for “7.0). EX527 (Selleckchem, S1541) was dissolved in 1% DMSO+30% polyethylene glycol+1% Tween 80. Daily intraperitoneal administration of P7C3-A20 was initiated 24 hr after poly-traumatic brain injury. EX527 (10 mg/kg) was administer once a day and FK866 was treated twice per day, with the first injection given at the same time as P7C3-A20 (20 mg/kg) and the second injection given 6 h later (LoCoco et al., 2017 eLife).”
Western blotting: Western blotting was performed as described previously (Min et al., 2010), with the 9AB antibody against acetylated-tau generated in the Gan laboratory. […] Lysates were centrifuged at 170,000 g at 4° C. for 15 min and at 18,000 g at 4° C. for 10 min, after which protein concentrations of supernatants were measured by bicinchoninic acid assay (Thermo Scientific, A53225). […]

O=C(Oc1ccccc1C(=O)O)c1ccccc1O [salsalate]
TBI-induced increase of CCL2 in cerebral cortex (CCL2): this increase is not attenuated | post-TBI motor impairment (foot slip assay) (C57BL/6J mice): protects mice from post-TBI impairments | inhibition of p300/CBP (p300/CBP): known inhibitor of rodent and human p300/CBP | hazard ratio [HR], clinically-diagnosed TBI (clinically-diagnosed TBI): 0.70 | phosphorylation of tau at S262 in hippocampus (tau): remains significantly decreased in hippocampus

Reference: patent US20240201204A1, “Biomarker and Druggable Target of Neurodegeneration” (University Hospitals Cleveland Medical Center, priority 2020, published 2024)
